This is an account of results in US11993599B2, “Therapeutic compounds” (Genentech, Inc., priority 2021, dated 2024).

One experiment has as its target BRM (Homo sapiens, UniProt P51531). Nature of the experiment: Immunofluorescence assay for BRM degradation in SW1573 cells. In kind it is cell-based. Also on record: treated overnight at 4° C. with either BRM primary antibody (Cell signaling Cat #11966) or BRG primary antibody; endogenous in cells; host or cells: SW1573. As to conditions: 20 hours incubation; for DC50: immunofluorescence mean nuclear signal, read-out: BRM IF Degradation IC50; for BRM IF Degradation Sinf (%): normalized to a known degrader control. The gist of the method: (§1)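 After a 20 h incubation with test compound, SW1573 cells are fixed and stained for BRM or BRG1 plus Hoechst. Per-cell mean nuclear intensity, referenced to a degrader control, is fit concentration-dependently with unconstrained maximum for Dmax.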

A further experiment has as its target T1, BRG1 (Homo sapiens, UniProt P51532).
T1 construct: either BRM primary antibody (Cell signaling Cat #11966) or BRG primary antibody (Abcam, ab 110641); endogenous in cells; host or cells: SW1573
Nature of the experiment: Immunofluorescence assay for BRG1 degradation in SW1573 cells. In kind it is cell-based. Conditions: 20 hours incubation; for DC50: immunofluorescence mean nuclear signal, read-out: BRG1 IF Degradation IC50; for Dmax: SW1573, 20 h, normalized to a known degrader control, read-out: BRG1 IF Degradation Sinf (%). The gist of the method: as §1

T1 sequence (P51532 whole entry): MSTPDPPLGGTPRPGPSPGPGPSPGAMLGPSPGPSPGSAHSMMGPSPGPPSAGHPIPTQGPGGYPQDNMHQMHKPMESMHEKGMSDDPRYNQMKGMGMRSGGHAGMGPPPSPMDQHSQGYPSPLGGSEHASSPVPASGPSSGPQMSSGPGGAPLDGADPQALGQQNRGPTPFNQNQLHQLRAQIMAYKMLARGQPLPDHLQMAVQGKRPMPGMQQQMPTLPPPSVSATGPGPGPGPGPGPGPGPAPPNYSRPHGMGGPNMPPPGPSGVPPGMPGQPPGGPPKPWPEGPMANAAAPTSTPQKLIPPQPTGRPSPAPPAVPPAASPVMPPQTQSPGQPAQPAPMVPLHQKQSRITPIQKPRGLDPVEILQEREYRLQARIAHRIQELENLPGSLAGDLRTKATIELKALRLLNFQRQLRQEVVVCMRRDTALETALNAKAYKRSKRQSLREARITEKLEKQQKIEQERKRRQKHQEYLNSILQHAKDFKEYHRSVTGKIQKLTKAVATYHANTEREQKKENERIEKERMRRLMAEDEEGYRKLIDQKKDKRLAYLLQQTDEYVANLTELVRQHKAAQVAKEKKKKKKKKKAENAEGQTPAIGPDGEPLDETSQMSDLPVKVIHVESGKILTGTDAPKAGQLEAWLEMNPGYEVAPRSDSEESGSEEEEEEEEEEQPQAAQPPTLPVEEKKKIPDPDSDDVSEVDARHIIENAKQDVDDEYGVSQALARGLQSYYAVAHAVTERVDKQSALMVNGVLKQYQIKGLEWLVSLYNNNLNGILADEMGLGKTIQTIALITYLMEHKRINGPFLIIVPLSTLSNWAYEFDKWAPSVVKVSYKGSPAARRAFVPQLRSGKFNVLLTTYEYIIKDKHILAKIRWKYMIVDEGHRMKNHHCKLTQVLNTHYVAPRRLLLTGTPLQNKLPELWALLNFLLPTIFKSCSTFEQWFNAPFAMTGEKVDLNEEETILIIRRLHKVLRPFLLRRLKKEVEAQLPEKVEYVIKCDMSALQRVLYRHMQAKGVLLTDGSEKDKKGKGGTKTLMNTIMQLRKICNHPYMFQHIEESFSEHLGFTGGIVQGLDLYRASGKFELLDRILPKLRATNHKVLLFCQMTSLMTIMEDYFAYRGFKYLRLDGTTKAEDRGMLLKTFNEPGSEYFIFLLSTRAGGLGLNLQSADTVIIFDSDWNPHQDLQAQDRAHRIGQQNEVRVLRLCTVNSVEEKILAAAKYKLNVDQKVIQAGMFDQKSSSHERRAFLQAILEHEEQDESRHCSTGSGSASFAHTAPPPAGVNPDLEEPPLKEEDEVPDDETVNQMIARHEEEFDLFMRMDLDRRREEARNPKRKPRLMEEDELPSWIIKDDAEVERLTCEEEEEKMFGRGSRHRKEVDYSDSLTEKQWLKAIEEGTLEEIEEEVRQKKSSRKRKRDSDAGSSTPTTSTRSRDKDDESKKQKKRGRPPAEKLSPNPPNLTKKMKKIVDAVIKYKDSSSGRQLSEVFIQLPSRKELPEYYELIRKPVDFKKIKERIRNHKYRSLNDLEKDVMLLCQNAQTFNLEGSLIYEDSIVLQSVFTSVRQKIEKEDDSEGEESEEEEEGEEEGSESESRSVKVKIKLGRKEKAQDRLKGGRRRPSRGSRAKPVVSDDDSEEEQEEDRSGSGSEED
Chain of BRM (P51531 whole entry): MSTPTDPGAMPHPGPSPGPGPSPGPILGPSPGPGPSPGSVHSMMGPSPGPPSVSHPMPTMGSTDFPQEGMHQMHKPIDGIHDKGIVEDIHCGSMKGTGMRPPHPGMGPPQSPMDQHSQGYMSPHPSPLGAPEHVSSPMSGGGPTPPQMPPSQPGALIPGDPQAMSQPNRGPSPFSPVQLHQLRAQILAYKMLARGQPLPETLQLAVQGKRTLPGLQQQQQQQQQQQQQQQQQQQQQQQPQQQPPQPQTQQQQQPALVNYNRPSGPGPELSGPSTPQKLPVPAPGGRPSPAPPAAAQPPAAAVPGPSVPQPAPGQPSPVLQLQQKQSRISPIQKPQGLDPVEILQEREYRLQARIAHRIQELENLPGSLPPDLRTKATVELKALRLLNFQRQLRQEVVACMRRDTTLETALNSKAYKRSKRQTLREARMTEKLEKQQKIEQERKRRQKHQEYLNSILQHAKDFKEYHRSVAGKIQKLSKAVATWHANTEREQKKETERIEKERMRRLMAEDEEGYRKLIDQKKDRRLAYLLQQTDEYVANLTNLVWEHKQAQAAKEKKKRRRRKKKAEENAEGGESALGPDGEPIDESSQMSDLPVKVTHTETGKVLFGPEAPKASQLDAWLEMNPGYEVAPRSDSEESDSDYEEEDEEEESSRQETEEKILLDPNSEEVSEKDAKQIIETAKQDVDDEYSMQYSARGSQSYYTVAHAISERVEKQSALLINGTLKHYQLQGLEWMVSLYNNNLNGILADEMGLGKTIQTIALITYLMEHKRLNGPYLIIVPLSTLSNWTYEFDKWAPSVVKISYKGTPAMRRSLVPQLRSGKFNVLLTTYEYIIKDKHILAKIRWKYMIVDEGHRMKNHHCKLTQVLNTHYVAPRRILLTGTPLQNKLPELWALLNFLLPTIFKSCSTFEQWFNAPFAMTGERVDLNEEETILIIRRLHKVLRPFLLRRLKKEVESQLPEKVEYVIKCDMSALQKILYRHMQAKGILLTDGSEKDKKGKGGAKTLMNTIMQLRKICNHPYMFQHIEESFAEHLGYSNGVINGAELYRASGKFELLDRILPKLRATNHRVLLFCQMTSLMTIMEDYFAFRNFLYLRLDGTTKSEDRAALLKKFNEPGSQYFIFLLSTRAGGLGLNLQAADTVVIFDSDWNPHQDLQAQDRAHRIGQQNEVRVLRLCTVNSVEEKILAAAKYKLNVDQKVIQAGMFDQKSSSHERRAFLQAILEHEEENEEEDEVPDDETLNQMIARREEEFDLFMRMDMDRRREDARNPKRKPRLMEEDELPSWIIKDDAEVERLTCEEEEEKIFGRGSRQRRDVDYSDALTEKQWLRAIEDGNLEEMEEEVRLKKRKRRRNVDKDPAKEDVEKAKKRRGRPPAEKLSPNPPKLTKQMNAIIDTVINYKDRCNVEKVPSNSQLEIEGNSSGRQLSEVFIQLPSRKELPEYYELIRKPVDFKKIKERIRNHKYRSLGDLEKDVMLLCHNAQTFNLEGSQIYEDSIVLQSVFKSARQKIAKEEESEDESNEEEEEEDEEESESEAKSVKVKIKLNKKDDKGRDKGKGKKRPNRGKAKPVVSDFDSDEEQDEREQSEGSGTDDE

On to `Nc1nnc(-c2ccccc2O)cc1N1CC2CCC(C1)N2c1ccnc(C#CCN2CCC3CNCC32)c1` (stereo not drawn) [Compound 146, 2-[5-[8-[2-[3-(3,3a,4,5,6,6a-hexahydro-2H-pyrrolo[3,4-b]pyrrol-1-yl)prop-1-ynyl]-4-pyridyl]-3,8-diazabicyclo[3.2.1]octan-3-yl]-6-amino-pyridazin-3-yl]phenol], for which, on BRM, the DC50 is over 100 nM and the “BRM IF Degradation Sinf (%)” value is on record as “E (E indicates −30%-−70%)”. At BRG1, the DC50 is over 100 nM and the Dmax was 30 to 70%.

Regarding `Nc1nnc(-c2ccccc2O)cc1N1CC2CCC(C1)N2c1ccnc(C#CCN2CCOC3CCNCC32)c1` (stereo not drawn) [Compound 147, 2-[5-[8-[2-[3-(2,3,4a,5,6,7,8,8a-octahydropyrido[4,3-b][l,4]oxazin-4-yl)prop-1-ynyl]-4-pyridyl]-3,8-diazabicyclo[3.2.1]octan-3-yl]-6-amino-pyridazin-3-yl]phenol], at BRM, the DC50 is over 100 nM and the “BRM IF Degradation Sinf (%)” value is “E (E indicates −30%-−70%)”. Further, at BRG1, the DC50 is over 100 nM and the Dmax lay within 30 to 70%.

As for `CNC(=O)C12CC(CN1CC#Cc1cc(N3C4CCC3CN(c3cc(-c5ccccc5O)nnc3N)C4)ccn1)C2` [Compound 148, 2-[3-[4-[3-[3-amino-6-(2-hydroxyphenyl)pyridazin-4-yl]-3,8-diazabicyclo[3.2.1]octan-8-yl]-2-pyridyl]prop-2-ynyl]-N-methyl-2-azabicyclo[2.1.1]hexane-1-carboxamide], on BRM, the DC50 lay in the range of 10 to 100 nM and the “BRM IF Degradation Sinf (%)” value is “E (E indicates −30%-−70%)”. For the same compound, on BRG1, the DC50 was over 100 nM and the Dmax was 30 to 70%.

Turning to `Nc1nnc(-c2ccccc2O)cc1N1CC2CCC(C1)N2c1ccnc(C#CCN2Cc3cn[nH]c3C2)c1` [Compound 149, 2-[6-amino-5-[8-[2-[3-(4,6-dihydro-1H-pyrrolo[3,4-c]pyrazol-5-yl)prop-1-ynyl]-4-pyridyl]-3,8-diazabicyclo[3.2.1]octan-3-yl]pyridazin-3-yl]phenol], on BRM, the DC50 was in the range of 10 to 100 nM and the “BRM IF Degradation Sinf (%)” value is reported as “E (E indicates −30%-−70%)”. For the same compound, on BRG1, the DC50 lay within 10 to 100 nM and the Dmax lay in the range of 0 to 30%.

`Nc1nnc(-c2ccccc2O)cc1N1CC2CCC(C1)N2c1ccnc(C#CCN2CC(C3CC3)C2)c1` [Compound 150, 2-[6-amino-5-[8-[2-[3-(3-cyclopropylazetidin-1-yl)prop-1-ynyl]-4-pyridyl]-3,8-diazabicyclo[3.2.1]octan-3-yl]pyridazin-3-yl]phenol]: at BRM, the DC50 is under 10 nM and the “BRM IF Degradation Sinf (%)” value is “F (F indicates −71%-−120%)”. Moreover, at BRG1, the DC50 was under 10 nM and the Dmax is 30 to 70%.

Regarding `Nc1nnc(-c2ccccc2O)cc1N1CC2CCC(C1)N2c1ccnc(C#CCN2CC3(C2)CC3(F)F)c1` [Compound 151, 2-[6-amino-5-[8-[2-[3-(2,2-difluoro-5-azaspiro[2.3]hexan-5-yl)prop-1-ynyl]-4-pyridyl]-3,8-diazabicyclo[3.2.1]octan-3-yl]pyridazin-3-yl]phenol], on BRM, the DC50 was under 10 nM and the “BRM IF Degradation Sinf (%)” value was “E (E indicates −30%-−70%)”. On BRG1, the DC50 was under 10 nM and the Dmax is 0 to 30%.

With `N#CCC1CN(CC#Cc2cc(N3C4CCC3CN(c3cc(-c5ccccc5O)nnc3N)C4)ccn2)C1` [Compound 152, 2-[1-[3-[4-[3-[3-amino-6-(2-hydroxyphenyl)pyridazin-4-yl]-3,8-diazabicyclo[3.2.1]octan-8-yl]-2-pyridyl]prop-2-ynyl]azetidin-3-yl]acetonitrile], at BRM, the DC50 is under 10 nM and the “BRM IF Degradation Sinf (%)” value is “E (E indicates −30%-−70%)”. At BRG1, the DC50 is under 10 nM and the Dmax lay in the range of 30 to 70%.

With `Nc1nnc(-c2ccccc2O)cc1N1CC2CCC(C1)N2c1ccnc(C#CCN2CCCCC23CC3)c1` [Compound 153, 2-[6-amino-5-[8-[2-[3-(4-azaspiro[2.5]octan-4-yl)prop-1-ynyl]-4-pyridyl]-3,8-diazabicyclo[3.2.1]octan-3-yl]pyridazin-3-yl]phenol], on BRM, the DC50 was under 10 nM and the “BRM IF Degradation Sinf (%)” value is on record as “E (E indicates −30%-−70%)”. Further, on BRG1, the DC50 is under 10 nM and the Dmax fell in the range of 0 to 30%.

Regarding `Nc1nnc(-c2ccccc2O)cc1N1CC2CCC(C1)N2c1ccnc(C#CCN2CC(O)(C3CC3)C2)c1` [Compound 154, 1-[3-[4-[3-[3-amino-6-(2-hydroxyphenyl)pyridazin-4-yl]-3,8-diazabicyclo[3.2.1]octan-8-yl]-2-pyridyl]prop-2-ynyl]-3-cyclopropyl-azetidin-3-ol], on BRM, the DC50 was under 10 nM and the “BRM IF Degradation Sinf (%)” value is reported as “F (F indicates −71%-−120%)”. Also, on BRG1, the DC50 was under 10 nM and the Dmax fell in the range of 30 to 70%.

As to `Nc1nnc(-c2ccccc2O)cc1N1CC2CCC(C1)N2c1ccnc(C#CCN2CC3(CCCC3)C2)c1` [Compound 155, 2-[6-amino-5-[8-[2-[3-(2-azaspiro[3.4]octan-2-yl)prop-1-ynyl]-4-pyridyl]-3,8-diazabicyclo[3.2.1]octan-3-yl]pyridazin-3-yl]phenol], at BRM, the DC50 is under 10 nM and the “BRM IF Degradation Sinf (%)” value is “E (E indicates −30%-−70%)”. Also, on BRG1, the DC50 is under 10 nM and the Dmax was 30 to 70%.

As for `CN1CC2(CCN(CC#Cc3cc(N4C5CCC4CN(c4cc(-c6ccccc6O)nnc4N)C5)ccn3)C2)C1` [Compound 156, 2-[6-amino-5-[8-[2-[3-(2-methyl-2,6-diazaspiro[3.4]octan-6-yl)prop-1-ynyl]-4-pyridyl]-3,8-diazabicyclo[3.2.1]octan-3-yl]pyridazin-3-yl]phenol], on BRM, the DC50 was over 100 nM and the “BRM IF Degradation Sinf (%)” value is listed as “E (E indicates −30%-−70%)”. Besides, at BRG1, the DC50 was over 100 nM and the Dmax was in the range of 30 to 70%.

For the compound `Nc1nnc(-c2ccccc2O)cc1N1CC2CCC(C1)N2c1ccnc(C#CCN2CC(C3CCOC3)C2)c1` (stereo not drawn) [Compound 157, 2-[6-amino-5-[8-[2-[3-(3-tetrahydrofuran-3-ylazetidin-1-yl)prop-1-ynyl]-4-pyridyl]-3,8-diazabicyclo[3.2.1]octan-3-yl]pyridazin-3-yl]phenol], at BRM, the DC50 was in the range of 10 to 100 nM and the “BRM IF Degradation Sinf (%)” value was “E (E indicates −30%-−70%)”. Moreover, at BRG1, the DC50 was 10 to 100 nM and the Dmax fell in the range of 30 to 70%.

Regarding `Nc1nnc(-c2ccccc2O)cc1N1CC2CCC(C1)N2c1ccnc(C#CCN2CC(CC(F)F)C2)c1` [Compound 158, 2-[6-amino-5-[8-[2-[3-[3-(2,2-difluoroethyl)azetidin-1-yl]prop-1-ynyl]-4-pyridyl]-3,8-diazabicyclo[3.2.1]octan-3-yl]pyridazin-3-yl]phenol], at BRM, the DC50 is under 10 nM and the “BRM IF Degradation Sinf (%)” value is “F (F indicates −71%-−120%)”. For the same compound, at BRG1, the DC50 is under 10 nM and the Dmax was in the range of 30 to 70%.

Regarding `Nc1nnc(-c2ccccc2O)cc1N1CC2CCC(C1)N2c1ccnc(C#CCN2CCC23CCOCC3)c1` [Compound 159, 2-[6-amino-5-[8-[2-[3-(7-oxa-1-azaspiro[3.5]nonan-1-yl)prop-1-ynyl]-4-pyridyl]-3,8-diazabicyclo[3.2.1]octan-3-yl]pyridazin-3-yl]phenol], on BRM, the DC50 is under 10 nM and the “BRM IF Degradation Sinf (%)” value was “E (E indicates −30%-−70%)”. On BRG1, the DC50 was under 10 nM and the Dmax is 30 to 70%.

Turning to `Nc1nnc(-c2ccccc2O)cc1N1CC2CCC(C1)N2c1ccnc(C#CCN2CC3(COCCO3)C2)c1` [Compound 160, 2-[6-amino-5-[8-[2-[3-(5,8-dioxa-2-azaspiro[3.5]nonan-2-yl)prop-1-ynyl]-4-pyridyl]-3,8-diazabicyclo[3.2.1]octan-3-yl]pyridazin-3-yl]phenol], on BRM, the DC50 was in the range of 10 to 100 nM and the “BRM IF Degradation Sinf (%)” value is listed as “E (E indicates −30%-−70%)”. Further, at BRG1, the DC50 lay in the range of 10 to 100 nM and the Dmax lay within 0 to 30%.

Turning to `Nc1nnc(-c2ccccc2O)cc1N1CC2CCC(C1)N2c1ccnc(C#CCN2C[C@H]3OCC[C@H]32)c1` [Compound 161, 2-[6-amino-5-[8-[2-[3-[(1R,5R)-2-oxa-6-azabicyclo[3.2.0]heptan-6-yl]prop-1-ynyl]-4-pyridyl]-3,8-diazabicyclo[3.2.1]octan-3-yl]pyridazin-3-yl]phenol], at BRM, the DC50 is under 10 nM and the “BRM IF Degradation Sinf (%)” value is given as “E (E indicates −30%-−70%)”. In addition, at BRG1, the DC50 lay within 10 to 100 nM and the Dmax was 30 to 70%.

In the case of `Nc1nnc(-c2ccccc2O)cc1N1CC2CCC(C1)N2c1ccnc(C#CCN2CC3CCCC32)c1` (stereo not drawn) [Compound 162, 2-(5-(8-(2-(3-(6-azabicyclo[3.2.0]heptan-6-yl)prop-1-yn-1-yl)pyridin-4-yl)-3,8-diazabicyclo[3.2.1]octan-3-yl)-6-aminopyridazin-3-yl)phenol], at BRM, the DC50 was under 10 nM and the “BRM IF Degradation Sinf (%)” value is “F (F indicates −71%-−120%)”. Further, at BRG1, the DC50 was under 10 nM and the Dmax is 30 to 70%.

As for `CNC(=O)[C@@H]1CCCN1CC#Cc1cc(N2C3CCC2CN(c2cc(-c4ccccc4O)nnc2N)C3)ccn1` [Compound 163, (2S)-1-[3-[4-[3-[3-amino-6-(2-hydroxyphenyl)pyridazin-4-yl]-3,8-diazabicyclo[3.2.1]octan-8-yl]-2-pyridyl]prop-2-ynyl]-N-methyl-pyrrolidine-2-carboxamide], at BRM, the DC50 lay in the range of 10 to 100 nM and the “BRM IF Degradation Sinf (%)” value was “E (E indicates −30%-−70%)”. In addition, at BRG1, the DC50 is over 100 nM and the Dmax lay in the range of 30 to 70%.
